In patent US3997517A, “Cyclic somatostatin disulfide analogues” (American Home Products Corporation, priority 1976, dated 1976) one finds Insulin, Glucagon and GH data, which are given here for two compounds.

Holding throughout (assay type): in vivo
The test system of one test is blood serum insulin. Put plainly: Blood serum insulin in Nembutal-treated rats, radioimmunoassay. The settings on record: Nembutal 50 mg/kg i.p., blood sampled 15 min later. The protocol:
(§1) The in vivo activity of the cyclic somatostatin disulfide analogues of this invention was established with cyclic somatostatin disulfide as a representative member of the family of compounds by comparing the blood serum growth hormone, glucagon and insulin concentrations found in rats grouped for control, somatostatin and cyclic somatostatin disulfide comparison. The rats, weighing between 200 and 250 grams were treated with Nembutal, 50 milligrams per kilogram intraperitoneally. After five minutes the somatostatin, control and cyclic somatostatin disulfide administrations were made subcutaneously. The rats blood was sampled fifteen minutes later and the growth hormone, glucagon and insulin levels were determined by radioimmunoassay.

The subject of the next test is blood serum glucagon. Put plainly: Blood serum glucagon in Nembutal-treated rats, radioimmunoassay. Conditions: Nembutal 50 mg/kg i.p., blood sampled 15 min later. The protocol:
as §1

In test [1] the test system is blood serum growth hormone. Put plainly: Blood serum growth hormone in Nembutal-treated rats, radioimmunoassay. Conditions: Nembutal 50 mg/kg i.p., blood sampled 15 min later, control 291±47, *p < 0.01. The protocol:
as §1

For `C[C@@H]1NC(=O)[C@@H]2CSSC[C@H](NC(=O)CNC1=O)C(=O)N[C@@H](CCCCN)C(=O)N[C@@H](CC(N)=O)C(=O)N[C@@H](Cc1ccccc1)C(=O)N[C@@H](Cc1ccccc1)C(=O)N[C@@H](Cc1c[nH]c3ccccc13)C(=O)N[C@@H](CCCCN)C(=O)N[C@@H]([C@@H](C)O)C(=O)N[C@@H](Cc1ccccc1)C(=O)N[C@@H]([C@@H](C)O)C(=O)N[C@@H](CO)C(=O)N2` [Example IV, Cyclo-L-cysteinyl-L-alanyl-glycyl-L-cysteinyl-L-lysyl-L-asparaginyl-L-phenyl-alanyl-L-phenylalanyl-L-tryptophyl-L-lysyl-L-threonyl-L-phenylalanyl-L-threonyl-L-serine (1-4 disulfide)], in the test on blood serum insulin (dose 3000 μg/kg subcutaneously, control 272±39), the Insulin was determined as 308 ± 30 µU/mL. The Glucagon with blood serum glucagon (dose 3000 μg/kg subcutaneously, control 33±2) stood at 29.7 ± 4 pg/mL. The GH in test [1] (dose 3000 μg/kg subcutaneously) worked out at 40 ± 4 ng/mL.

Compound `C[C@H](N)C(=O)NCC(=O)N[C@H]1CSSC[C@@H](C(=O)O)NC(=O)[C@H](CO)NC(=O)[C@H]([C@@H](C)O)NC(=O)[C@H](Cc2ccccc2)NC(=O)[C@H]([C@@H](C)O)NC(=O)[C@H](CCCCN)NC(=O)[C@H](Cc2c[nH]c3ccccc23)NC(=O)[C@H](Cc2ccccc2)NC(=O)[C@H](Cc2ccccc2)NC(=O)[C@H](CC(N)=O)NC(=O)[C@H](CCCCN)NC1=O` [Somatostatin, somatostatin] came in with an Insulin in the test with blood serum insulin (dose 200 μg/kg subcutaneously, control 272±39, +p < 0.05) of 161 ± 21 µU/mL. The Glucagon in the test with blood serum glucagon (dose 200 μg/kg subcutaneously, control 33±2, *p < 0.01) came to 17 ± 2 pg/mL. The GH in test [1] (dose 200 μg/kg subcutaneously) came out at 40 ± 4 ng/mL.
